Assay results published in ChEMBL document CHEMBL1201862, “PubChem BioAssay data set” (2004).
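Each compound was tested at five concentrations against cells in 96-well plates for 48 hours. GI50 = concentration required for 50% inhibition of growth.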 Activity calls are given as the source filed them. Rule as the data show it: active = GI50 up to about 1.1 µM and inactive = higher.

Assays:
Assay in all cases: NCI anticancer screen, dose series, 48 h
BT-549 = system: BT-549
CAKI-1 = system: CAKI-1
COLO 205 = system: COLO 205
HL-60 = system: HL-60
HOP-92 = system: HOP-92
HT-29 = system: HT-29
IGROV-1 = system: IGROV-1
LOX IMVI = system: LOX IMVI
MDA-MB-231 = system: MDA-MB-231
NCI-H226 = system: NCI-H226
NCI-H23 = system: NCI-H23
NCI-H522 = system: NCI-H522
NCI/ADR-RES = system: NCI/ADR-RES
OVCAR-8 = system: OVCAR-8
SK-MEL-28 = system: SK-MEL-28
SNB-19 = system: SNB-19
SW-620 = system: SW-620
TK-10 = system: TK-10
UACC-257 = system: UACC-257
UO-31 = system: UO-31

| SMILES | GI50 (BT-549) | GI50 (CAKI-1) | GI50 (COLO 205) | GI50 (HL-60) | GI50 (HOP-92) | GI50 (HT-29) | GI50 (IGROV-1) | GI50 (LOX IMVI) | GI50 (MDA-MB-231) | GI50 (NCI-H226) | GI50 (NCI-H23) | GI50 (NCI-H522) | GI50 (NCI/ADR-RES) | GI50 (OVCAR-8) | GI50 (SK-MEL-28) | GI50 (SNB-19) | GI50 (SW-620) | GI50 (TK-10) | GI50 (UACC-257) | GI50 (UO-31) |
| --- | --- | --- | --- | --- | --- | --- | --- | --- | --- | --- | --- | --- | --- | --- | --- | --- | --- | --- | --- | --- |
| N#CCN1CCN(CC#N)CCN(CC#N)CCN(CC#N)CC1 | > 100 µM (inactive) | > 100 µM (inactive) | > 100 µM (inactive) | 33.3 µM (inactive) | > 100 µM (inactive) | 50.5 µM (inactive) | > 100 µM (inactive) | 33.3 µM (inactive) | > 100 µM (inactive) | > 100 µM (inactive) | > 100 µM (inactive) | > 100 µM (inactive) | > 100 µM (inactive) | > 100 µM (inactive) | > 100 µM (inactive) | > 100 µM (inactive) | 42 µM (inactive) | > 100 µM (inactive) | > 100 µM (inactive) | > 100 µM (inactive) |
| Nn1c(CCCCCCCCc2nnc(COc3ccccc3)n2N)nnc1COc1ccccc1 | > 100 µM (inactive) | > 100 µM (inactive) | > 100 µM (inactive) | > 100 µM (inactive) | > 100 µM (inactive) | > 100 µM (inactive) | > 100 µM (inactive) | > 100 µM (inactive) | > 100 µM (inactive) | > 100 µM (inactive) | > 100 µM (inactive) | > 100 µM (inactive) | > 100 µM (inactive) | > 100 µM (inactive) | > 100 µM (inactive) | > 100 µM (inactive) | > 100 µM (inactive) | > 100 µM (inactive) | > 100 µM (inactive) | > 100 µM (inactive) |
| CSc1ccc(-c2cc(-c3nc4ccccc4[nH]3)nc(N)c2C#N)cc1 | 20.6 µM (inactive) | 18.3 µM (inactive) | 15.9 µM (inactive) | 20 µM (inactive) | 8.55 µM (inactive) | 21.9 µM (inactive) | 8.67 µM (inactive) | 18.2 µM (inactive) | 17.1 µM (inactive) | 21.3 µM (inactive) | 24.9 µM (inactive) | 16.1 µM (inactive) | 31.3 µM (inactive) | 31.6 µM (inactive) | 20.2 µM (inactive) | 25.2 µM (inactive) | 31.3 µM (inactive) | 31.6 µM (inactive) | 18.5 µM (inactive) | – |
| O=C1O/C(=C\c2ccc(O)c(Br)c2)C(c2ccc(O)c(Cl)c2)=C1Br | 17.9 µM (inactive) | 27 µM (inactive) | 18.1 µM (inactive) | 20 µM (inactive) | 15.4 µM (inactive) | 12.9 µM (inactive) | 21.9 µM (inactive) | 44.6 µM (inactive) | 37.3 µM (inactive) | – | 17.3 µM (inactive) | 14.4 µM (inactive) | 19.9 µM (inactive) | 23 µM (inactive) | 16.3 µM (inactive) | 18.3 µM (inactive) | 17.3 µM (inactive) | 25.2 µM (inactive) | 15.8 µM (inactive) | 25.7 µM (inactive) |
| CN(C)CCCNC(=O)c1cc(NC(=O)c2cc(NC(=O)c3cc(NC(=O)CCCn4ccc(CO)c4CO)cn3C)cn2C)cn1C | 2.64 µM (inactive) | > 100 µM (inactive) | 11.2 µM (inactive) | 3.1 µM (inactive) | 13 µM (inactive) | – | 3.2 µM (inactive) | 4.28 µM (inactive) | 27.7 µM (inactive) | 2.97 µM (inactive) | 13.8 µM (inactive) | 2.37 µM (inactive) | > 100 µM (inactive) | – | 11.4 µM (inactive) | 2.9 µM (inactive) | 20.6 µM (inactive) | 24.8 µM (inactive) | – | > 100 µM (inactive) |
| C/C(Nc1ccc(Cl)cc1)=C1/CCOC1=O | 52.7 µM (inactive) | > 66.1 µM (inactive) | 1.44 µM (inactive) | 1.15 µM (inactive) | > 100 µM (inactive) | 30.1 µM (inactive) | > 23 µM (inactive) | 0.277 µM (active) | > 100 µM (inactive) | > 100 µM (inactive) | > 100 µM (inactive) | > 70 µM (inactive) | > 75.9 µM (inactive) | 7.89 µM (inactive) | > 100 µM (inactive) | > 100 µM (inactive) | > 53.2 µM (inactive) | 46.8 µM (inactive) | 46.5 µM (inactive) | 2.81 µM (inactive) |
| C[C@]12CC[C@H]3[C@@H](CC=C4C[C@@H](O)CC[C@@]43C)[C@@H]1C/C(=C\c1ccncc1)[C@@H]2O | 3.51 µM (inactive) | 18.1 µM (inactive) | 10.6 µM (inactive) | 10.2 µM (inactive) | 2 µM (inactive) | 20.9 µM (inactive) | 21.8 µM (inactive) | 22 µM (inactive) | 28.8 µM (inactive) | 17.7 µM (inactive) | 13.7 µM (inactive) | 16.3 µM (inactive) | 17.3 µM (inactive) | 15 µM (inactive) | 18.1 µM (inactive) | 21.2 µM (inactive) | 31.1 µM (inactive) | 39.3 µM (inactive) | 17.3 µM (inactive) | 27.1 µM (inactive) |
